From patent US20080311169A1, “Composition Comprising Ginsenosides for Treating or Preventing Angiostenosis and Restenosis” (priority 2004, published 2008)
Like-named read-outs stand apart in the source and are kept apart here.

Columns and labels:
[1] = tested on: SMCs (human aortic smooth muscle cells); assay: Cell cytotoxicity, colorimetric MTT assay
Method: SMCs (human aortic smooth muscle cells, Cambrex, USA) were cultured in SmGM-2 BulletKit (Cambex, USA) medium containing 10% FBS (Cambrex, USA), with 100× antibiotics (Cambex, USA) added thereto, and subcultured by using 1×trypsin-EDTA (Gibco BRL, USA) with maintaining the condition of 37° C., 5% CO2.
Before confirming whether ginsenoside and red ginseng extract affect the growth of muscle cell, the cell cytotoxicity was determined as the effect of cell cytotoxicity induced by ginsenosides Rk1, Rg3, and Rg5, red ginseng extract, and the present composition in muscle cell.
The cell cytotoxicity to the sample was determined by colorimetric MTT assay (Scudiero D. A. et al., Cancer Res., 48:4827-4833, 1988). That is, the muscle cell was plated to 96 wells microtiter tissue culture plate (Falcon) by 1×10^4 cells/ml, and then each well was treated with the sample, cultured for a certain period of time, treated with MTT sample, and melted with solubilization solution when formazan was formed, and the absorbance was determined at 540 nm.

[2] = tested on: SMCs (human aortic smooth muscle cells); assay: Cell proliferation ELISA BrdU assay; assay type: cell-based; details: for inhibition at 5 µg/mL: Homo sapiens, at the concentration of 5 μg/ml, FIGS. 3 and 4, read-out: inhibition of the growth of muscle cell; for inhibition of the growth of muscle cell (in words): absorbance 450 nm, FIGS. 3 and 4
Method: To determine the effects of cell proliferation by the sample, Cell proliferation ELISA BrdU assay kit (Roche, USA) was purchased and used. Cells were put into 96 wells plate, treated with the sample after cultivation, and cultured for a certain period of time. At a certain point of time, BrdU labeling solution was added into the cells, which in turn were reacted at 37° C., in 5% CO2 for 2 hr. Then, FixDenat was added thereto, and the mixture was reacted at the room temperature for 30 min. And, Anti-BrdU-POD working solution was added thereto, and the mixture was reacted at the room temperature for 1 hr and 30 min. Afterwards, substrate solution was added thereto, and the mixture was reacted at the room temperature for 20 min. The reaction was stopped by using sulphuric acid, and then the absorbance was determined at 450 nm.

[3] = MTT, absorbance 540 nm, proper concentration, FIGS. 1 and 2

Row | SMILES | cell cytotoxicity in muscle cell [1] | inhibition at 5 µg/mL [2] [%] | inhibition of the growth of muscle cell (in words) [2] | cell cytotoxicity in muscle cell [1, 3]
1 | CC(C)=CCC[C@](C)(O)[C@H]1CC[C@]2(C)[C@@H]1[C@H](O)C[C@@H]1[C@@]3(C)CC[C@H](O[C@@H]4O[C@H](CO)[C@@H](O)[C@H](O)[C@H]4O[C@@H]4O[C@H](CO)[C@@H](O)[C@H](O)[C@H]4O)C(C)(C)[C@@H]3CC[C@]12C [Rg3, ginsenoside Rg3] | no cell cytotoxicity was found | 50 | inhibited the growth of muscle cell | 
2 | CC(C)=CC/C=C(/C)C1CCC2(C)C1C(O)CC1C3(C)CCC(OC4OC(CO)C(O)C(O)C4OC4OC(CO)C(O)C(O)C4O)C(C)(C)C3CCC12C (centres unmarked) [Rg5, ginsenoside Rg5] |  | 50 | inhibited the growth of muscle cell | no cell cytotoxicity was found
3 | C=C(CCC=C(C)C)C1CCC2(C)C1C(O)CC1C3(C)CCC(OC4OC(CO)C(O)C(O)C4OC4OC(CO)C(O)C(O)C4O)C(C)(C)C3CCC12C (centres unmarked) [Rk1, ginsenoside Rk1] |  |  | inhibited the growth of muscle cell | no cell cytotoxicity was found
